Measured values: PMC12455130, “Multifunctional molecular agent for tau-targeted combinational therapy of Alzheimer’s disease” (The Journal of Biological Chemistry, 2025)

Key:
tau peptide R3 [1] = molecular target: T1, tau peptide R3 (Homo sapiens, UniProt P10636); experiment: ThS assay, Cu2+-promoted heparin-induced R3 aggregation; format: biochemical; conditions: R3 15 μM, Cu2+ 3.8 μM, compound 10 μM, heparin 3.8 μM, 3 h
T1 construct: R3 (^306VQIVYK PVDLSK VTSKCG SLGNIH HKPGGG Q^336) and rabbit anti-tau antibody were purchased from MuJin; purchased MuJin
Excerpt: Metal ions, especially Cu^2+, are believed to be highly compatible with cysteine residues of tau peptide as a coordination center ([26]). Accompanied by the formation of intermolecular S–Cu–S bridging coordination bond, or intermolecular disulfide bond, these metal ions have been proven to promote tau aggregation ([27]). After confirming that 4GA and 2GA can effectively remove copper ions through coordination, we further explore their effects on R3 aggregation under the promotion of Cu^2+. […] Heparin was used to initiate the aggregation ([15]). […] As a comparison, the effects of the precursor compounds: 4ME, 3ME, 2ME, and 1ME, on Cu^2+-promoted R3 aggregation were also examined (Fig. S15).
Figure 5 Kinetic curves and TEM image of R3 aggregation with 4GA or 2GA.A, kinetic curves of the R3 (15 μM) aggregation monitored by ThS fluorescence assay in different conditions. B, ThS fluorescence intensity of R3 (15 μM) incubated for 3 h in different conditions. C, TEM image of R3 fibrils in different conditions. Negatively stained with uranyl acetate. Scale bar represents 200 nm. Final concentrations of R3, Cu^2+, and inhibitors are 15, 3.8, and 10 μM, respectively. All aggregations were initiated by heparin (3.8 μM). 2GA, (4,10-dimethyl-1,4,7,10-tetraazacyclododecane-1,7-diyl)bis((3,4,5-trihydroxyphenyl)methanone); 4GA, (1,4,7,10-tetraazacyclododecane-1,4,7,10-tetrayl)tetrakis((3,4,5-trihydroxyphenyl)methanone); TEM, transmission electron microscopy; ThS, thioflavin S.
The promotion of Cu^2+ on R3 aggregation was also inspected, similar to the aforementioned operation, unless that 3.8 μM Cu^2+ was also included, and using 50 mM Hepes (pH 7.4) as the buffer solution.
Fig. S15 ThS fluorescence intensity of R3 (15 µM) incubated for 3 h. Final concentrations of R3, Cu^2+, and compounds are 15, 3.8 and 10 µM, respectively. All aggregations were initiated by heparin (3.8 µM).

tau peptide R3 [2] = molecular target: T1, tau peptide R3; experiment: ThS assay, heparin-induced R3 aggregation (kinetics and dose-response); format: biochemical; conditions: 80 μM compound, 15 μM R3, 3.8 μM heparin, 37 °C, 3 h
Experimental: The inhibition effect of 4GA–2GA on R3 aggregation was explored by thioflavin S (ThS) assay ([24]). In general, the kinetics of R3 aggregation in the absence or the presence of 4GA, 2GA was assessed by measuring the emission intensity of ThS at 500 nm, which reflects the amount of R3 aggregates. As the control experiments, the aggregation kinetics of 4ME and GA were also carried out. While induced by heparin, R3 aggregates rapidly at 37 °C, and the fluorescence of ThS reaches a maximum after an average time of 200 s (Fig. 4A). Based on the aforementioned conditions, the inhibitory ability of our synthetic compounds at three different concentrations (5, 10, and 40 μM) was tested.
Next, the dose–response inhibitory effects of our synthetic compounds on R3 aggregation were investigated. The detailed experimental operation was descripted in ESI. […] The apparent values of IC50 were calculated according to the dose−response curve.
Tau peptide R3 was adjusted to a concentration of 15 μM using 50 mM Tris−HCl buffer (pH 7.4), ThS (final concentration of 10 μM), and different amounts of 4GA, 2GA, 4ME, and GA (final concentration of 0, 5, 10, and 40 μM) as the aggregation inhibitor were added in1to the reaction mixture. Aggregation was induced by adding heparin to the solution (final concentration of 3.8 μM); the kinetics of each sample was immediately monitored by a fluorescence spectrophotometer with a 10-mm quartz cell at 440/500 nm (excitation/emission). A circulating water bath was necessary to maintain the temperature at 37 °C.
Tau peptide R3 was adjusted to a concentration of 15 μM using 50 mM Tris–HCl buffer (pH 7.4). Different amounts of 4GA, 2GA, 4ME, and GA (final concentration of 0, 1, 2, 4, 6, 10, 15, 20, 30, 40, 60, or 80 μM) as the aggregation inhibitors were added into the reaction mixture. Aggregation was induced by adding heparin to the solution (final concentration of 3.8 μM), After 3 h incubation at 37°C, ThS (final concentration of 10 μM) was added, and the fluorescence intensity at 440/500 nm (excitation/emission) was recorded on Hitachi F-7000 with a 10-mm quartz cell. The dose−response inhibitory effects of R3 aggregation were expressed by the aggregation percentage, which was calculated according to the following (Formula 4.3):(4.3) aggregation%=F-F0/Ft-F0×100
where F0 = fluorescence intensity of R3 monomer, Ft = fluorescence intensity of R3 aggregate, and F = fluorescence intensity of R3 aggregate in the presence of inhibitors. The IC50 values were also calculated according to the dose−response inhibitory effects.
Tau peptide R3 was adjusted to a concentration of 15 μM using Tris−HCl buffer (pH 7.4), and the synthetic compounds (4GA, 2GA, together with 4ME, GA as the comparison) at different concentrations, as aggregation inhibitor, were added into the reaction mixture separately. Aggregation was induced by heparin, and incubated at 37 °C for 3 h. By introducing fluorescence probe ThS, the dose−response inhibitory effects on R3 aggregation were recorded, according to normalized ThS fluorescence intensity (excitation: 440 nm, emission: 500 nm).
Figure S14. Inhibitory effects of N-substituted Azacrown on heparin-induced R3 aggregation, exermined by ThS fluorescence: 15 μM R3 and 3.8 μM heparin with cyclen, 1ME, 2ME, 3ME, and 4ME (80 μM) was incubated respectively at 37°C for 3h. 10 μM ThS was added to each of the solution, Spectra of ThS fluorescence were recorded at Ex440 nm.

tau protein = conditions: cited from earlier work
[3] = design: method as in PMID 19496588; conditions: cited from earlier work
tau peptide R3 [4] = molecular target: T1, tau peptide R3; design: method as in PMID 23442089; conditions: reported earlier; read-out: IC50 on R3 aggregation; cited from earlier work

T1 sequence (P10636 623-653 limits assumed): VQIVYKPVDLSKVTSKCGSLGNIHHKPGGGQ

| Compound | ThS fluorescence intensity of R3 aggregation in the presence of Cu2+ (tau peptide R3 [1]) | effect on heparin-induced R3 aggregation (ThS fluorescence at 500 nm) (tau peptide R3 [2]) | other results |
| --- | --- | --- | --- |
| 1,4,7-trimethyl-1,4,7,10-tetraazacyclododecane [2ME] | only to a level close to the case of R3 aggregation in the absence of Cu^2+ | did not hinder the aggregation of R3 peptides |  |
| CN1CCNCCNCCNCC1 [1ME, 1-methyl-1,4,7,10-tetraazacyclododecane] | only to a level close to the case of R3 aggregation in the absence of Cu^2+ | did not hinder the aggregation of R3 peptides |  |
| CN1CCNCCN(C)CCN(C)CC1 [3ME, 1,4,7-trimethyl-1,4,7,10-tetraazacyclododecane] | only to a level close to the case of R3 aggregation in the absence of Cu^2+ | did not hinder the aggregation of R3 peptides |  |
| C=C(C)[C@@H]1CCC(C)=C[C@H]1c1c(O)cc(CCCCC)cc1O [cannabidiol] |  |  | binding ability to tau protein (tau protein): 42100 M⁻¹ |
| C1CNCCNCCNCCN1 [cyclen, 1,4,7,10-tetraazacyclododecane] |  |  | log KCu-cyclen (thermodynamic stability) [3]: 24.8 |
| Nc1nc(=O)c2nc(CNc3ccc(C(=O)N[C@@H](CCC(=O)O)C(=O)O)cc3)cnc2[nH]1 [folic acid] |  |  | binding ability to tau protein (tau protein): 230000 M⁻¹ |
| tannic acid |  |  | IC50 (tau peptide R3 [4]): 3.5 µM |
